The assay deals with HL-60(TB) leukemia. Description: inhibition of tumour cell growth, NCI panel, 384-well format.

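GI50 is the concentration that inhibits growth by half.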

With `CNNCc1ccc(C(=O)NC(C)C)cc1`, the GI50 was 12.2 µM.
